Experiments:
[1] = system: human MAL; test: Phage display screening of TIR domain-derived peptide library against immobilized MAL, NGS analysis after four rounds; assay type: binding; details: for NGS count: phages remaining after fourth round
Description: (§1) First, vector cloning was performed by synthesizing a DNA sequence for expressing each peptide belonging to the library constructed in Example 1. Vector cloning was performed using p3/p8 phagemids.
(§2) After the fourth round, the remaining phages were obtained by binding to the finally immobilized target proteins, and peptide sequences binding to the target and the relative distribution of each sequence were confirmed by performing NGS analysis on phagemids in the phages.

[2] = system: human MYD88; test: Phage display screening of TIR domain-derived peptide library against immobilized MyD88, NGS analysis after four rounds; assay type: binding; details: for NGS count: phages remaining after fourth round
Description: as §1, §2

[3] = molecular target: human MAL (human) (UniProt P58753); test: P3 phage display panning on plate-immobilised MAL, after round 4, NGS
[4] = P3_MAL: library displayed on P3 coat protein
[5] = P3_MAL: relative distribution of the sequence in NGS
[6] = P3_MyD88: library displayed on P3 coat protein
[7] = P3_MyD88: relative distribution of the sequence in NGS
[8] = P8_MAL: library displayed on P8 coat protein
[9] = P8_MyD88: library displayed on P8 coat protein
[10] = P8_MyD88: relative distribution of the sequence in NGS
[11] = P8_MAL: relative distribution of the sequence in NGS

Chain of UniProt P58753 (P58753 79-221 limits assumed): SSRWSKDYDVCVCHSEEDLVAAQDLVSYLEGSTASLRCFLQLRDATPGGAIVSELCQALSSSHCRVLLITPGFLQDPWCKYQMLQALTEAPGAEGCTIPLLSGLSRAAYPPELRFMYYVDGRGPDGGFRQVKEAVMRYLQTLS

KEVEGWRDALTKVASL
NGS count [1, 4]: 3758
Population [1, 5]: 1.41%
NGS count [2, 6]: 5187
Population [2, 7]: 1.80%

FLNFRGLDVRNYFLGH
NGS count [1, 4]: 2855
Population [1, 5]: 1.07%

DFLNWFIALKSTVIEN
NGS count [1, 8]: 867

WFLTAFRMAMDQVADT
NGS count [1, 8]: 353

YTALTNSGFHTFRDND
NGS count [2, 6]: 17600
Population [2, 7]: 5.12%

MFGGDTFHDFLDLISM
NGS count [2, 9]: 1489
Population [2, 10]: 0.57%

ESILNQLRRSSQSIAN
NGS count [1, 4]: 3680
Population [1, 5]: 1.38%
NGS count [2, 6]: 1976
Population [2, 7]: 0.58%

WFYERLVSLILRDTKV
NGS count [1, 8]: 79000
Population [1, 11]: 24.40%

YLRADDSWFWEKLLYA
NGS count [2, 9]: 4067
Population [2, 10]: 1.57%

KWFWDKLIYALSRNPH
NGS count [1, 4]: 2796
Population [1, 5]: 1.05%

PSEVRKQTGSLAKAFA
NGS count [2, 6]: 2253
Population [2, 7]: 0.66%

DPQDLQWFYERLVSLI
NGS count [2, 9]: 5730
Population [2, 10]: 2.21%

LKWGDPYFWSKLRYAM
NGS count [1, 4]: 5128
Population [1, 5]: 1.93%
NGS count [2, 6]: 8310
Population [2, 7]: 2.42%

SPQEQDGFWVRLIEAL
NGS count [2, 9]: 1842
Population [2, 10]: 0.71%

EWIREQLRPALKERLP
NGS count [1, 4]: 2354
Population [1, 5]: 0.88%
NGS count [2, 6]: 16821
Population [2, 7]: 4.90%

SLLYDHLRWLGIRAFL
NGS count [1, 8]: 2576
Population [1, 11]: 0.80%

RLLKWKEALHQFHSWV
NGS count [1, 4]: 14924
Population [1, 5]: 5.61%

DWVWDYLLPNLEGPAG
NGS count [2, 9]: 19394
Population [2, 10]: 7.47%

WALDELLQILHARELF
NGS count [2, 9]: 14404
Population [2, 10]: 5.55%

YLISYIFNELARAGFS
NGS count [1, 8]: 295
Population [1, 11]: 0.09%

WFLFTVRSAIYAMSPA
NGS count [1, 8]: 3156
Population [1, 11]: 0.97%

AFFWAQLKSVLGNPTM
NGS count [1, 8]: 28801
Population [1, 11]: 8.90%

HHKGSYGEALAEHEKR
NGS count [1, 4]: 3056
Population [1, 5]: 1.15%

KNLFNELVSKNIRTFM
NGS count [1, 4]: 3259
Population [1, 5]: 1.22%
NGS count [2, 6]: 8543
Population [2, 7]: 2.49%

DPQDLDWFYERLVSLF
NGS count [2, 9]: 54757
Population [2, 10]: 21.10%

HFFWIQLKSILGETSF
NGS count [1, 8]: 3624
Population [1, 11]: 1.12%

IDDDHLTYLVRLLLSR
NGS count [2, 9]: 3059
Population [2, 10]: 1.18%

LQNQWKLALTKVANLV
NGS count [1, 4]: 2285
Population [1, 5]: 0.86%

NELVHVWSSKANSLVG
NGS count [1, 4]: 1836
Population [1, 5]: 0.69%
NGS count [2, 6]: 8816
Population [2, 7]: 2.57%

NGHESEIIKEIVDTIV
NGS count [2, 6]: 4233
Population [2, 7]: 1.23%

AFLYTFLINLTHPTNF
NGS count [1, 8]: 51063
Population [1, 11]: 18.86%

YAASPWWFDELVKIVG
NGS count [2, 9]: 3433
Population [2, 10]: 1.32%

SEFIQKIILWMNPKIV
NGS count [1, 8]: 4458
Population [1, 11]: 1.38%

WFMMKFRTVLDHVNDV
NGS count [1, 8]: 2269

LEANDSLFWDRLLYSL
NGS count [2, 9]: 1465
Population [2, 10]: 0.56%

QLIQQWIELHLHQLHL
NGS count [1, 8]: 9394
Population [1, 11]: 2.90%
NGS count [2, 9]: 1605
Population [2, 10]: 0.62%

SLRKNLVSNLIEEFKR
NGS count [1, 4]: 3569
Population [1, 5]: 1.34%

DYASSTWWLRELLQIA
NGS count [2, 9]: 4111
Population [2, 10]: 1.58%

LVAHEISKKMKIFATI
NGS count [1, 4]: 1671
Population [1, 5]: 0.63%
NGS count [2, 6]: 17452
Population [2, 7]: 5.08%

AWALHQLQQIINWHET
NGS count [1, 8]: 232
Population [1, 11]: 0.07%

VEPTQVRKQSGAVENA
NGS count [1, 4]: 2283
Population [1, 5]: 0.86%

YASYDDNDYYWVTHVLLRHL
NGS count [2, 9]: 5893
Population [2, 10]: 2.66%

RNFVAYLFQALANKGI
NGS count [1, 8]: 27950
Population [1, 11]: 8.63%

PQDLEWFYERLVSLIL
NGS count [2, 9]: 10568
Population [2, 10]: 4.07%

LKVESWRQALEKAGKL
NGS count [1, 4]: 5180
Population [1, 5]: 2.32%
NGS count [2, 6]: 16847
Population [2, 7]: 4.91%

HWIDWEYFVGIEDHIK
NGS count [2, 9]: 3422
Population [2, 10]: 1.32%

KLIQGWFLYRLLKIEQ
NGS count [1, 8]: 2068

DPQDLDWFYERLVSLL
NGS count [2, 9]: 13137
Population [2, 10]: 5.06%

AVDKETDKIQTPLKNA
NGS count [2, 6]: 4790
Population [2, 7]: 1.39%

AFFWEQLRTVLGKPTM
NGS count [1, 8]: 11826
Population [1, 11]: 3.65%

YFLHFLLFSRPETEYI
NGS count [1, 8]: 17198
Population [1, 11]: 5.31%

VQWDDPWFWDKLAYAM
NGS count [2, 9]: 4902
Population [2, 10]: 1.89%

SAAYDDFWDRLIRMIE
NGS count [2, 9]: 5335
Population [2, 10]: 2.06%

TSHLHHALRLNKIETF
NGS count [2, 6]: 2076
Population [2, 7]: 0.60%

DTKLKKGESIAPELLR
NGS count [1, 8]: 5617
Population [1, 11]: 1.74%
NGS count [2, 6]: 2465
Population [2, 7]: 0.72%

LFFWESLKQLLRSDGR
NGS count [1, 8]: 22560
Population [1, 11]: 5.97%

SSFREGLWRLLELSKK
NGS count [1, 4]: 29955
Population [1, 5]: 11.26%
NGS count [2, 6]: 79510
Population [2, 7]: 23.15%

DSLFWDRLLYSLHVTE
NGS count [2, 9]: 7586
Population [2, 10]: 2.92%

HLLKEFDKKLITAFKD
NGS count [2, 6]: 2399
Population [2, 7]: 0.70%

WALQELVKILQAKIFL
NGS count [1, 8]: 227
Population [1, 11]: 0.07%

PNLRTKVLNYLMRTKT
NGS count [1, 4]: 26931
Population [1, 5]: 10.12%

YYLDPSHLRKQSGEFG
NGS count [2, 6]: 2538
Population [2, 7]: 0.74%

DWVWEHFFPMEEKDQT
NGS count [2, 9]: 1538
Population [2, 10]: 0.59%

KMQKWKDALYEAANLS
NGS count [1, 4]: 4427
Population [1, 5]: 1.66%

YLKWGYPWFWDRLRFA
NGS count [1, 4]: 1680
Population [1, 5]: 0.63%
NGS count [1, 8]: 517
NGS count [2, 6]: 7321
Population [2, 7]: 2.13%

KFIWDIINAISSQIRV
NGS count [1, 8]: 146

YASSSWALDELLRILY
NGS count [2, 9]: 2327
Population [2, 10]: 0.90%

RGFLSHLRHHLQAKDH
NGS count [1, 4]: 15065
Population [1, 5]: 5.66%

WALDELLKILYANETM
NGS count [2, 9]: 10515
Population [2, 10]: 4.05%

DWFLSKLSQHILKREK
NGS count [1, 4]: 4580
Population [1, 5]: 1.72%

DHHLDLPRGKAIKPEILG
NGS count [1, 4]: 2280
Population [1, 5]: 0.86%
NGS count [2, 6]: 26722
Population [2, 7]: 7.78%

RKGDLISDELLIAIEE
NGS count [2, 6]: 2452
Population [2, 7]: 0.71%

SENYATSPWALDELVL
NGS count [2, 6]: 5494
Population [2, 7]: 1.89%

TFLGHLYNALVQAGIH
NGS count [1, 8]: 24732
Population [1, 11]: 7.64%

AYANFRQGLLRLLELA
NGS count [1, 8]: 466

NQWRNALTAAANLSGW
NGS count [1, 4]: 25831
Population [1, 5]: 9.71%
NGS count [1, 8]: 848
NGS count [2, 6]: 28662
Population [2, 7]: 8.35%

SFFWNKLRYHLPAPQH
NGS count [1, 4]: 2297
Population [1, 5]: 0.86%

SELRVVDDGSVSPLEM
NGS count [2, 6]: 4872
Population [2, 7]: 1.42%

YAFTGHLHRYLVQRGV
NGS count [1, 4]: 43764
Population [1, 5]: 16.44%
NGS count [2, 6]: 13420
Population [2, 7]: 3.91%

GFLYQAFAREGFKIFM
NGS count [1, 4]: 1764
Population [1, 5]: 0.66%
NGS count [2, 6]: 2579
Population [2, 7]: 0.75%

FLSYRALEKRFGPIGQ
NGS count [2, 6]: 3289
Population [2, 7]: 0.96%

VANILGYHWIDWEYFV
NGS count [2, 9]: 2029
Population [2, 10]: 0.78%

FTLAVHVRNWLVGGFI
NGS count [1, 8]: 520

WDFASNMEQFWDRLYY
NGS count [2, 9]: 7352
Population [2, 10]: 2.83%

HQAFWNRLWAKLKPPT
NGS count [1, 4]: 1932
Population [1, 5]: 0.73%

RNNFIGHLYQALYRIG
NGS count [1, 8]: 3120
Population [1, 11]: 0.96%

GLSWGPYEWWMGLYDA
NGS count [2, 9]: 1965
Population [2, 10]: 0.76%

PEKDNGGENAFINNIV
NGS count [2, 6]: 2498
Population [2, 7]: 0.73%

LGYHWIDWEYFVGIED
NGS count [2, 9]: 25216
Population [2, 10]: 9.72%

KLFWEKFKEFFLPSLSR
NGS count [1, 8]: 4888
Population [1, 11]: 1.51%

DPQDLEWFYERLFSQM
NGS count [2, 9]: 4488
Population [2, 10]: 1.73%

YNFISHLYDALHRNRI
NGS count [1, 4]: 2678
Population [1, 5]: 1.01%
NGS count [2, 6]: 2891
Population [2, 7]: 0.84%

YLLLSVFQTIFARRTE
NGS count [2, 9]: 7165
Population [2, 10]: 2.76%

B1: … (peptide)
peptide: RGFLSHLRHHLQAKDH
NGS count [3]: 15100 count
Population [3]: 5.66%

B2: … (peptide)
peptide: PNLRTKVLNYLMRTKT
NGS count [3]: 26900 count
Population [3]: 10.1%

B3: … (peptide)
peptide: VEPTQVRKQSGAVENA
NGS count [3]: 2280 count
Population [3]: 0.86%

B4: … (peptide)
peptide: HQAFWNRLWAKLKPPT
NGS count [3]: 1930 count
Population [3]: 0.73%

Source: EP4613859A1, “TLR SIGNALING INHIBITORY PEPTIDE AND COMPOSITION INCLUDING SAME FOR PREVENTION OR TREATMENT OF INFLAMMATORY DISEASES” (Korea Institute of Science and Technology, priority 2022, dated 2025)
